Test results: patent publication US20220339094A1, “NOVEL SKIN CARE COMPOSITION” (BEIERSDORF AG, priority 2019, published 2022)

Experiments:
C. acnes strain K8 = assay: Minimum inhibitory concentration (MIC) of cosmetic excipients, strain K8; assay type: cell-based, Cutibacterium acnes; conditions: % w/vol, anaerobic 3 days at 37° C, visual growth scoring
Protocol: (§1) In microbiology, the MIC is the lowest concentration of a chemical which prevents visible growth of bacterium. The resulted MIC value depends both on the microorganism and the test compound. The MIC is determined by preparing concentrations series of the test compound in vitro, incubating the solutions with the separate batches of cultured bacteria, and measuring the results using agar dilution or broth microdilution. For the experiments with C. acnes strains C3 and K8, media comprising yeast extract soy peptone and dextrose were used. The MIC is determined by turbidity.
(§2) A total of 125 cosmetic excipients were tested for their compatibility with C. acnes strains C3 and K8. Hydrophilic compounds were tested in a 96-well plate liquid broth format, poorly soluble compounds were pre-dissolved in DMSO before dilution in liquid broth and hydrophobic or solid compounds were tested in an agar well diffusion test assay. The different dilutions of the test excipients in media were prepared in Falcon tubes and then distributed in a deep well plate using a multistepper. Each well received 1.2 ml and was subsequently inoculated with 120 μl of C. acnes bacteria suspension (strain C3 and K8). From the deep well plate 200 μl were transferred in each well of a clear 96 well replicate plate. The leftover was discarded. The plates were then incubated anaerobically for 3 days at 37° C. Following incubation, the test plates were visually examined and wells were scored for growth or complete growth inhibition to define the minimum inhibitory concentration.
(§3) These excipients are listed in the below table with their compatibility values for C. acnes strains C3 and K8. The compatibility values represent the MIC value of the listed ingredients with the tested C. acnes strains. At this concentration [% w/vol] the tested compound starts interfering with the growth of the tested strains. The compounds can be used in formulations at concentrations below this concentration.

C. acnes strain C3 = assay: Minimum inhibitory concentration (MIC) of cosmetic excipients, strain C3; assay type: cell-based, Cutibacterium acnes; conditions: % w/vol, anaerobic 3 days at 37° C, visual growth scoring
Protocol: as §1, §2, §3

| Molecule | COMPATABILITY VALUE K8 (MIC) (C. acnes strain K8) [%] | COMPATABILITY VALUE C3 (MIC) (C. acnes strain C3) [%] |
| --- | --- | --- |
| O=C(O)CC(O)(CC(=O)O)C(=O)O [citric acid] | 0.08 | – |
| peg-40 hydrogenated castor oil | 1.00 | 1.00 |
| CC(=O)Oc1c(C)c(C)c2c(c1C)CCC(C)(CCC[C@H](C)CCC[C@H](C)CCCC(C)C)O2 (stereo partly drawn) [tocopheryl acetate] | 1.00 | – |
| CC(CO)CO [methylpropanediol] | 4.00 | 4.00 |
| ethylhexyl cocoate | 10.00 | 10.00 |
| CCCCCCC(O)CO (stereo not drawn) [caprylyl glycol] | 0.18 | 0.18 |
| tocopherol | 1.50 | 1.50 |
